Legend:
MC3T3-E1 cells [1] = assay: Trypan blue viability assay; type: cell-based; conditions: 100 micromolar, days 7, 14 and 21
Experimental: FIG. 7. MC3T3-E1 cell viability of cells treated with 6-Bnz-cAMP compared to untreated cells. Cell viability was measured by trypan blue viability stain.
Viability: Cell viability is determined using a trypan blue viability assay. For trypan blue viability assay method, at day 7, 14, and 21, cells were collected by trypsinization and stained with trypan blue dye (MP Biochemicals LLC, Solon, Ohio). The cells were then numbered in a hemacytometer (Hausser Scientific, Horsham, Pa.) under a light microscopy (Olympus Corporation, Tokyo, Japan). Cell stained blue was scored a dead cell, while unstained cell was scored a live cell. The results are presented in % of viability.
(§1) MC3T3-E1 cells were grown in mineralization media. 6-Bnz-cAMP was added to the culture medium to a final concentration of 100 μM for experiments; mineralization media only was used for positive controls. Osteoblast-associated markers were quantitated at days 7 and 14. Markers include increased alkaline phosphatas (ALP) activity (FIG. 5) and calcium precipitation in MC3T3-E1 cells (FIG. 6). 6-Bnz-cAMP toxicity was assessed at days 7, 14, and 21 in cells treated with 100 micromolar 6-Bnz-cAMP compared to untreated cells. Trypan blue staining was used to visualize cells (FIG. 7).

[2] = designed to resist enzymatic degradation in vivo; cited from earlier work
[3] = system: rat mesenchymal stem cells; assay: Quantitative calcium levels in mesenchymal stem cells; type: cell-based; conditions: vs control untreated cells and cells supplemented with BMP-2 peptide
Experimental: FIG. 9. Quantitative calcium levels determined in untreated (control) rat mesenchymal stem cells and cells treated with BMP-2 or 6-Bnz-cAMP. Keys: D-BMP-2 peptide; E-6-Bnz-cAMP; F-Control.
Cell adhesion, proliferation, and differentiation studies: Rabbit MSCs are plated onto PLAGA matrices at a plating density of 1×10^4 cells/cm^2 and cultured in standard basal medium. Four experimental groups are tested: (1) untreated cells, (2) 6-Bnz-cAMP treated cells, (3) BMP-2 treated cells, and (4) 6-Bnz-cAMP and BMP-2 treated cells. […] Initial cell adhesion is determined at 1 h, 3 h, 12 h, and 24 h. Cell proliferation and cell differentiation are determined at 1, 7, 14, and 21 days. Calcium deposition and ALP activity is also measured at days 3, 7, 14, and 21 in untreated cells compared to cells treated with BMP-2 or 6-Bnz-cAMP (FIGS. 9 and 10). […] For the cell adhesion assay, attached cells are quantified by crystal violet stain, a method routinely used to measure the initial cell adhesion. Cell proliferation is measured using a commercially available proliferation assay kit, MTS (Promega). For alkaline phosphatase (ALP) activity, the early markers of osteoblast differentiation are determined with a commercially availia ALP assay kit (Bio-rad). […] PCR amplification will be carried out and the resulting products will be analyzed by DNA gel electrophoresis and sequencing. […]

[4] = system: rat mesenchymal stem cells; assay: Proliferation of mesenchymal stem cells seeded on PLAGA scaffolds, PicoGreen dsDNA assay; type: cell-based; conditions: each time point, day 7 to day 21
Experimental: FIG. 8. Effect of 6-Bnz-cAMP on the proliferation of rat mesenchymal stem cells seeded on PLAGA scaffolds. Cell proliferation was assessed by PicoGreen dsDNA assay.
Evaluation of the in vitro cellular behaviors of rabbit MSC on the 6-Bnz-cAMP loaded PLAGA microsphere based scaffold: For in vitro studies, cells are plated onto the 6-Bnz-cAMP loaded and unloaded control scaffolds. Cell adhesion is determined at 1, 3, 6 and 24 hours. Cell proliferation levels are determined at Day 3, 7, and 14 (FIG. 8). Cell differentiation and mineralization are determined at Day 7, 14, 21, and 28. At the pre-determined times, scaffolds will be removed from the medium and unattached cells are removed by washing with PBS 4 times. The in vitro assays are performed on the attached cells according to the procedures described above in Example 3.

MC3T3-E1 cells [5] = assay: ALP activity assay; type: cell-based; conditions: 100 μM
Experimental: FIG. 5. 6-Bnz-cAMP increases ALP activities at day 7 and 14. […] To facilitate the comparison of different experimental settings, the ALP activity of the cells cultured in the regular growth medium at Day 7 was set to one relative unit.
as §1
ALP activities were measured using ALP assay kit according to the manufacturer's instructions (Bio-Rad, Hercules, Calif.). Briefly, at day 7 and 14, cells were collected and washed 4 times with PBS prior to the ALP activity assay. Cells were then lysed with 0.1% TX-100. Cell lysates were collected and mixed with the ALP substrate solution for 1 h at 37° C. incubation. The colorimetric change due to the presence of ALP activity was measured by a spectrophotometric plate reader at 405 nm. The absorbance values were then normalized to cellular DNA.

MC3T3-E1 cells [6] = assay: Matrix mineralization, quantitative calcium assay; type: cell-based; conditions: 100 μM in mineralization medium vs mineralization medium alone; day 21
Experimental: FIG. 6. 6-Bnz-cAMP promotes osteoblastic mineralization by day 21. After 20 days of culture of osteoblast-like MC3T3-E1 cells in mineralization medium with or without 6-Bnz-cAMP, quantitative calcium levels were determined. […] To facilitate the comparison of different experimental settings, the level of calcium measurement of the “Control” cells cultured in the regular growth medium was set to one relative unit.
MC3T3-E1 cells were grown in mineralization media (The minimal media described in Example 1 with, 1% of antibiotic (100 U/ml penicillin G and […] streptomycin), 3 mM β-glycerolphosphate, and 10 μg/ml ascorbic acid). 6-Bnz-cAMP was added to the culture medium to a final concentration of 100 μM for experiments; mineralization media only was used for positive controls. For the qualitative determination of calcified matrix mineralization, at day 21, media were removed and cells were rinsed with calcium-free PBS for 3 times. The precipitated calcium of mineralized matrix was dissolved overnight in 0.6N hydrochloric acid at 4° C. The extracted calcium was then measured with a calcium assay kit (Calcium Liquicolor, Stanbio Laboratory, Boerne, Tex.) according to the manufacturer's instructions. The absorbance values were normalized to cellular DNA.

O=C(Nc1ncnc2c1ncn2C1O[C@@H]2COP(=O)([O-])O[C@H]2[C@H]1O)c1ccccc1.[Na+] (stereo partly shown) [6-Bnz-cAMP, N^6-Benzoyladenosine-3′,5′-cyclic monophosphate]
cell viability vs untreated cells (MC3T3-E1 cells [1]): No significant differences | half-life [2]: long half-life | calcium deposition [3]: further enhanced calcium deposition | cell proliferation vs untreated control [4]: No significant differences | ALP activity (MC3T3-E1 cells [5]; day 7): induced | ALP activity (MC3T3-E1 cells [5]; day 14): further increased | calcium deposition (MC3T3-E1 cells [6]): further enhanced calcium deposition

From US20110217337A1, “BIOACTIVE AGENT FOR BONE TISSUE ENGINEERING” (UNIVERSITY OF CONNECTICUT, priority 2010, published 2011)
